Data taken from paper PMC7269146, “Jingzhaotoxin-X, a gating modifier of Kv4.2 and Kv4.3 potassium channels purified from the venom of the Chinese tarantula Chilobrachys jingzhao” (The Journal of Venomous Animals and Toxins Including …, 2020).
Where two headings read alike, the source gives them in different places. Where a SMILES comes first, the peptide text is derived from it. Bridges are numbered along the chain shown (N, C = ends).

What was measured:
Kv4.2 [1] = biological target: T1, Kv4.2 (Rattus norvegicus, UniProt Q63881); experiment: kinetic constants of JZTX-X at Kv4.2 channel (wash-in / wash-out); format: cell-based; settings: test conc. 0.2 μM, n = 6
T1 construct: expressed in transfected cells; host or cells: HEK293t
T1 sequence (Q63881 1-630): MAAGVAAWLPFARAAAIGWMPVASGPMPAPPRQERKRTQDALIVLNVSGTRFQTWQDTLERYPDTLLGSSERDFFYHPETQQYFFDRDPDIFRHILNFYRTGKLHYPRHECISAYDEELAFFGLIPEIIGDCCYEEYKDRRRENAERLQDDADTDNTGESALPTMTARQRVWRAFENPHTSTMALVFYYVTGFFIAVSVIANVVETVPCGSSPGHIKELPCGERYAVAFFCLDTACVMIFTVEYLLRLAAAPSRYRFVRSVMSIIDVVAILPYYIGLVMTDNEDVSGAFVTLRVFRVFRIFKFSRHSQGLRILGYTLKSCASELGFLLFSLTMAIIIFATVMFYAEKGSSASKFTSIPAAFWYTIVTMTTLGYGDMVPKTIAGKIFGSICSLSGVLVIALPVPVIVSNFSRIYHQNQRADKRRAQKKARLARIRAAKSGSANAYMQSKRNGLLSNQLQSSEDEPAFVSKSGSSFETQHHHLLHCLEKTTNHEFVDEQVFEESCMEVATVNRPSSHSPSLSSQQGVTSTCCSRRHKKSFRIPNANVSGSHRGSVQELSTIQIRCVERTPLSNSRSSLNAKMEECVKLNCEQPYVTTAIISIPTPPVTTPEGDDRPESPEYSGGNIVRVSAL
Source text: (§1) Rat cDNA genes encoding Kv4.2 (Accession: NM_031730.2) and Kv4.3 (Accession: AB003587.1) were subcloned to vector pcDNA3.1. In addition, human cDNA genes encoding Nav1.7 (Accession: DQ857292.1) and Nav1.5 (Accession: AB158469.2) were subcloned to vectors pcDNA3.1-mod and pcDNA3.1, separately. Then, Kv4.2, Kv4.3, Nav1.5 and Nav1.7 constructs were transiently transfected into the human embryonic kidney 293t (HEK293t) cells using lipofectamine 2000 (Invitrogen, USA) in accordance with manufacturer protocols. Thereafter, HEK293 cells were inoculated within Dulbecco’s modified Eagle’s medium (DMEM) containing 10% fetal bovine serum (FBS) at 5% CO2 and 37°C. The Kv4.3 channel and the Kv4.2 counterpart were then transfected in the absence of β subunit. Subsequently, cells were incubated with a DNA-lipofectamine mixture (one reporter plasmid for green fluorescence protein and channel constructs) for 4-6 h, and were washed with the fresh medium.
(§2) An EPC-10 patch-clamp amplifier (HEKA, Germany) was employed to record the potassium currents at the configuration of whole-cell patch-clamp under an ambient temperature of 22-25°C. The resistance was 2.0-3.0 MΩ when the recording pipette contained a full volume of internal solution (supplemented with 140 mM KCl, 10 mM HEPES, 2.5 mM MgCl2, 5 mM ATP and 11 mM EGTA). KOH was utilized to adjust the pH to 7.2, while sucrose was employed to adjust the osmolarity to 310 mOsm/L. The culture medium was replaced with an external solution containing 150 mM NaCl, 2.5 mM CaCl2, 10 mM HEPES, 2 mM MgCl2, 5 mM KCl, and 10 mM D-glucose. Similarly, sucrose and NaOH were applied to adjust the osmolarity to 330 mOsm/L and pH to 7.4. […] The series resistance was maintained at about 5 MΩ, with 65-70% compensation. Finally, the leakage currents and linear capacitance were subtracted digitally according to the P/4 protocol.
As for kinetic calculations, curves as a function of peak currents vs. time were plotted from the toxin wash-out or wash-in moments. The software Sigmaplot 9.0 (Sigma, USA) was utilized to fit data to the first-order exponential equation. […]

Kv4.2 [2] = biological target: T1, Kv4.2; experiment: triple-pulse protocol, toxin dissociation by strong depolarization, Kv4.2 in HEK 293T cells; format: cell-based; settings: 500 nM; for inhibition at 0.5 µM: HEK-293T
Source text: as §1, §2
Subsequently, we examined whether strong depolarization induced toxin dissociation from potassium channels. To address this question, the triple-pulse protocol was utilized, which used the test pulse of +20 mV after potent depolarization (+130 mV) to measure the available Kv4.2 currents (Fig. 6, inset). […] Furthermore, this toxin also affected the amplitude of outward Kv4.2 currents (46.3 ± 5.6%) by the second pulse (+130 mV). Typically, the amplitude of current acquired was nearly the same as that in controls induced by a third pulse (+20 mV), since the inhibition was only 17.5 ± 3.9% (Fig. 6, n = 7).
Figure 6. Potent depolarization dissociated the toxin-channel complex. The 300 ms test pulse at the voltage of +20 mV was utilized to induce the current traces. Prior to the application of test pulse, cells held at the voltage of -80 mV depolarized for 500 ms at the conditioning pulse of +130 mV and the holding potential of 50 ms (see inset). Following 500 nM JZTX-X perfusion, the test pulse-elicited current amplitude was nearly identical to the control after the 500 ms conditioning pulse.

In the case of `CC(C)C[C@@H]1NC(=O)[C@H](CCCCN)NC(=O)[C@H](Cc2ccc(O)cc2)NC(=O)[C@@H]2CSSC[C@@H]3NC(=O)[C@H](Cc4ccc(O)cc4)NC(=O)[C@H](Cc4ccccc4)NC(=O)CNC(=O)[C@H](C)NC(=O)[C@H](CSSC[C@H](NC(=O)[C@@H](N)CC(C)C)C(=O)N[C@@H](CO)C(=O)N[C@@H](CCCNC(=N)N)C(=O)N[C@@H](CCC(=O)O)C(=O)NCC(=O)N[C@@H](CCC(=O)O)C(=O)N[C@@H](Cc4ccccc4)C(=O)N2)NC(=O)[C@H](CSSC[C@@H](C(=O)N[C@@H](Cc2ccc(O)cc2)C(=O)N[C@@H](CCCNC(=N)N)C(=O)N[C@@H](CC(N)=O)C(=O)O)NC(=O)[C@H](Cc2c[nH]cn2)NC(=O)[C@H](CC(C)C)NC(=O)[C@H](C(C)C)NC(=O)[C@H](Cc2ccccc2)NC(=O)[C@H](C)NC(=O)[C@H](CCCCN)NC3=O)NC(=O)[C@H](CCCCN)NC(=O)[C@H](CCCNC(=N)N)NC1=O` [JZTX-X, Jingzhaotoxin-X] (H-LCSREGEFCYKLRKCCAGFYCKAFVLHCYRN-OH; disulfide 2-16, 9-21, 15-28; N-terminus assumed), the “kmod, Kv4.2 channel” value (Kv4.2 [1]; inverse of τ of toxin wash-in) is reported as 0.089 ± 0.007 s⁻¹, the koff (Kv4.2 [1]; inverse of τ of toxin wash-out) is reported as 0.008 ± 0.0006 s⁻¹ and the Kd (kinetic dissociation constant) (Kv4.2 [1]; method text: Kd = koff / kon, read-out: ki, Kv4.2 channel) is reported as 95 ± 30 nM. The “inhibition of Kv4.2 outward current, second pulse (+130 mV)” value (Kv4.2 [2]; 500 ms conditioning pulse, n = 7, 0.5 µM) was ~ 46%, the “inhibition of Kv4.2 current, first pulse (+20 mV)” value (Kv4.2 [2]; holding -80 mV, n = 7, 0.5 µM) was ~ 93% and the inhibition at 0.5 µM (Kv4.2 [2]; 500 ms conditioning pulse, n = 7, read-out: inhibition of Kv4.2 outward current, second pulse (+130 mV)) was 46.3 ± 5.6%. The inhibition at 0.5 µM (Kv4.2 [2]; after +130 mV conditioning pulse, n = 7, read-out: inhibition of Kv4.2 current, third pulse (+20 mV)) was 17.5 ± 3.9% and the inhibition at 0.5 µM (Kv4.2 [2]; holding -80 mV, n = 7, read-out: inhibition of Kv4.2 current, first pulse (+20 mV)) was 92.6 ± 3.2%.
